Laboratory results published in patent US4398029A, “Quinoline carboxylic acid derivatives and process for the preparation” (Kyorin Seiyaku Kabushiki Kaisha, priority 1981, dated 1983).
Values after ≈ are worked out from the molar mass of the structure shown. Read-outs that look alike come from different tables or passages of the source.

How the values were obtained:
[1] = tested on: S. aureus Terajima; assay: Antibacterial activity (MIC), standard agar dilution streak method; format: cell-based, Staphylococcus aureus; details: Staphylococcus aureus, read-out: Minimum inhibitory concentration
Procedure: (§1) The antibacterial activities of the compounds of the present invention were assayed by the standard agar dilution streak method against Gram-positive and Gram-negative bacteria [Chemotherapy, 22, 1126 (1974)].

[2] = tested on: E. coli ATCC 10536; assay: as above; format: cell-based, Escherichia coli; details: Escherichia coli, ATCC10536, read-out: Minimum inhibitory concentration
Procedure: as §1

[3] = tested on: Shigella sonnei IID 969; assay: microbe, parasite or virus in culture; format: cell-based; details: read-out: Minimum inhibitory concentration
Procedure: as §1

[4] = tested on: P. aeruginosa IFO 12689; assay: Antibacterial activity (MIC), standard agar dilution streak method; format: cell-based, Pseudomonas aeruginosa; details: Pseudomonas aeruginosa, IFO12689, P. aeruginosa IFO 12689; read-out: Minimum inhibitory concentration
Procedure: as §1

[5] = tested on: Citrobacter freundii IID 976; assay: as above; format: cell-based; details: read-out: Minimum inhibitory concentration
Procedure: as §1

[6] = tested on: Proteus vulgaris 3167; assay: as above; format: cell-based; details: read-out: Minimum inhibitory concentration
Procedure: as §1

[7] = tested on: Enterobacter cloacae IID 977; assay: as above; format: cell-based; details: read-out: Minimum inhibitory concentration
Procedure: as §1

[8] = tested on: S. epidermidis IID 866; assay: as above; format: cell-based; details: Staphylococcus epidermidis, IID866, read-out: Minimum inhibitory concentration
Procedure: as §1

[9] = tested on: Staphylococcus aureus 209 p; assay: as above; format: cell-based; details: read-out: Minimum inhibitory concentration
Procedure: as §1

[10] = tested on: P. mirabilis IID 994; assay: as above; format: cell-based; details: Proteus mirabilis, IID994, read-out: Minimum inhibitory concentration
Procedure: as §1

[11] = tested on: Escherichia coli NIHJ JC-2; assay: as above; format: cell-based; details: read-out: Minimum inhibitory concentration
Procedure: as §1

[12] = tested on: Klebsiella pneumoniae IFO 3512; assay: as above; format: cell-based; details: read-out: Minimum inhibitory concentration
Procedure: as §1

[13] = tested on: Bacillus subtilis PCI 219; assay: as above; format: cell-based; details: PCI219, read-out: Minimum inhibitory concentration
Procedure: as §1

[14] = tested on: Yersinia enterocolitica IID 981; assay: as above; format: cell-based; details: read-out: Minimum inhibitory concentration
Procedure: as §1

[15] = tested on: Salmonella enteritidis IID 604; assay: as above; format: cell-based; details: Salmonella enterica, read-out: Minimum inhibitory concentration
Procedure: as §1

[16] = tested on: P. morganii IID 602; assay: as above; format: cell-based; details: Morganella morganii, read-out: Minimum inhibitory concentration
Procedure: as §1

[17] = tested on: Acinetobacter anitratus IID 876; assay: as above; format: cell-based; details: Acinetobacter calcoaceticus, IID876, read-out: Minimum inhibitory concentration
Procedure: as §1

[18] = tested on: Pseudomonas aeruginosa V-1; assay: as above; format: cell-based; details: V1, read-out: Minimum inhibitory concentration
Procedure: as §1

[19] = tested on: Serratia marcescens IID 618; assay: as above; format: cell-based; details: read-out: Minimum inhibitory concentration
Procedure: as §1

[20] = tested on: Alcaligenes faecalis 0104002; assay: as above; format: cell-based; details: read-out: Minimum inhibitory concentration
Procedure: as §1

[21] = Shigella sonnei, IID969, Shigella sonnei IID 969
[22] = Citrobacter freundii, IID976, Citrobacter freundii IID 976
[23] = Proteus vulgaris, 3167, Proteus vulgaris 3167
[24] = Enterobacter cloacae, IID977, Enterobacter cloacae IID 977
[25] = Escherichia coli, NIHJJC2, Escherichia coli NIHJ JC-2
[26] = Klebsiella pneumoniae, IFO3512, Klebsiella pneumoniae IFO 3512
[27] = Yersinia enterocolitica, IID981, Yersinia enterocolitica IID 981
[28] = Serratia marcescens, IID618, Serratia marcescens IID 618
[29] = Alcaligenes faecalis, 0104002, Alcaligenes faecalis 0104002

Row | SMILES | MIC [2] | MIC [4] | MIC [8] | MIC [17] | MIC ([1]; S. aureus Terajima) | MIC [3, 21] | MIC [5, 22] | MIC [6, 23] | MIC [7, 24] | MIC ([9]; Staphylococcus aureus 209 p) | MIC ([10]; P. mirabilis IID 994) | MIC [11, 25] | MIC [12, 26] | MIC ([13]; Bacillus subtilis PCI 219) | MIC [14, 27] | MIC ([15]; Salmonella enteritidis IID 604) | MIC ([16]; IID602, P. morganii IID 602) | MIC ([18]; Pseudomonas aeruginosa V-1) | MIC [19, 28] | MIC [20, 29] | also measured
1 | CCN1CCN(c2c(F)cc3c(=O)c(C(=O)O)cn(CC)c3c2F)CC1 [Example 7, 1-Ethyl-7-(4-ethyl-1-piperazinyl)-6,8-difluoro-1,4-dihydro-4-oxoquinoline-3-carboxylic acid] | 0.1 µg/mL (≈ 0.274 µM) | 6.25 µg/mL (≈ 17.1 µM) | 0.78 µg/mL (≈ 2.13 µM) | 0.39 µg/mL (≈ 1.07 µM) | – | – | – | – | – | – | – | – | – | – | – | – | – | – | – | – | MIC [1]: 0.78 µg/mL (≈ 2.13 µM); MIC ([3]; IID969, Shigella sonnei IID 969): 0.1 µg/mL (≈ 0.274 µM); MIC ([5]; IID976, Citrobacter freundii IID 976): 0.2 µg/mL (≈ 0.547 µM); MIC ([6]; Proteus vulgaris 3167): ≤ 0.05 µg/mL; MIC ([7]; IID977, Enterobacter cloacae IID 977): 0.39 µg/mL (≈ 1.07 µM); MIC ([9]; Staphylococcus aureus, 209P): 0.78 µg/mL (≈ 2.13 µM); MIC [10]: 0.2 µg/mL (≈ 0.547 µM); MIC ([11]; NIHJJC2, Escherichia coli NIHJ JC-2): ≤ 0.05 µg/mL; MIC ([12]; IFO3512, Klebsiella pneumoniae IFO 3512): ≤ 0.05 µg/mL; MIC ([13]; Bacillus subtilis): 0.1 µg/mL (≈ 0.274 µM); MIC ([14]; IID981, Yersinia enterocolitica IID 981): 0.2 µg/mL (≈ 0.547 µM); MIC [15]: 0.39 µg/mL (≈ 1.07 µM); MIC ([16]; IID602): 0.39 µg/mL (≈ 1.07 µM); MIC ([18]; Pseudomonas aeruginosa): 6.25 µg/mL (≈ 17.1 µM); MIC ([19]; IID618, Serratia marcescens IID 618): 0.39 µg/mL (≈ 1.07 µM); MIC ([20]; Alcaligenes faecalis 0104002): 1.56 µg/mL (≈ 4.27 µM)
2 | CCn1cc(C(=O)O)c(=O)c2cc(F)c(N3CCN(CCO)CC3)c(F)c21 [Example 8, 1-Ethyl-6,8-difluoro-1,4-dihydro-7-[4-(2-hydroxyethyl)-1-piperazinyl]-4-oxoquinoline-3-carboxylic acid] | 0.2 µg/mL (≈ 0.524 µM) | 12.5 µg/mL (≈ 32.8 µM) | 0.78 µg/mL (≈ 2.05 µM) | 1.56 µg/mL (≈ 4.09 µM) | 0.78 µg/mL (≈ 2.05 µM) | 0.1 µg/mL (≈ 0.262 µM) | 0.39 µg/mL (≈ 1.02 µM) | 0.1 µg/mL (≈ 0.262 µM) | 0.39 µg/mL (≈ 1.02 µM) | 0.78 µg/mL (≈ 2.05 µM) | 0.2 µg/mL (≈ 0.524 µM) | ≤ 0.05 µg/mL | ≤ 0.05 µg/mL | 0.1 µg/mL (≈ 0.262 µM) | 0.39 µg/mL (≈ 1.02 µM) | 0.78 µg/mL (≈ 2.05 µM) | 0.78 µg/mL (≈ 2.05 µM) | 12.5 µg/mL (≈ 32.8 µM) | 0.78 µg/mL (≈ 2.05 µM) | 1.56 µg/mL (≈ 4.09 µM) | –
3 | CCn1cc(C(=O)O)c(=O)c2cc(F)c(N3CCCC3)c(F)c21 [Example 11, 1-Ethyl-6,8-difluoro-1,4-dihydro-4-oxo-7-(1-pyrrolidinyl)quinoline-3-carboxylic acid] | 0.2 µg/mL (≈ 0.621 µM) | 6.25 µg/mL (≈ 19.4 µM) | 0.2 µg/mL (≈ 0.621 µM) | 0.39 µg/mL (≈ 1.21 µM) | 0.1 µg/mL (≈ 0.31 µM) | 0.2 µg/mL (≈ 0.621 µM) | 0.39 µg/mL (≈ 1.21 µM) | ≤ 0.05 µg/mL | 1.56 µg/mL (≈ 4.84 µM) | 0.1 µg/mL (≈ 0.31 µM) | 0.1 µg/mL (≈ 0.31 µM) | 0.2 µg/mL (≈ 0.621 µM) | ≤ 0.05 µg/mL | ≤ 0.05 µg/mL | 0.39 µg/mL (≈ 1.21 µM) | 1.56 µg/mL (≈ 4.84 µM) | 0.39 µg/mL (≈ 1.21 µM) | 6.25 µg/mL (≈ 19.4 µM) | 1.56 µg/mL (≈ 4.84 µM) | 0.39 µg/mL (≈ 1.21 µM) | –
4 | CCn1cc(C(=O)O)c(=O)c2cc(F)c(N3CCOCC3)c(F)c21 [Example 12, 1-Ethyl-6,8-difluoro-1,4-dihydro-7-(4-morpholinyl)4-oxoquinoline-3-carboxylic acid] | 0.39 µg/mL (≈ 1.15 µM) | 12.5 µg/mL (≈ 36.9 µM) | 0.39 µg/mL (≈ 1.15 µM) | 1.56 µg/mL (≈ 4.61 µM) | 0.39 µg/mL (≈ 1.15 µM) | 0.2 µg/mL (≈ 0.591 µM) | 0.78 µg/mL (≈ 2.31 µM) | ≤ 0.05 µg/mL | 1.56 µg/mL (≈ 4.61 µM) | 0.2 µg/mL (≈ 0.591 µM) | 0.2 µg/mL (≈ 0.591 µM) | 0.2 µg/mL (≈ 0.591 µM) | ≤ 0.05 µg/mL | ≤ 0.05 µg/mL | 0.39 µg/mL (≈ 1.15 µM) | 1.56 µg/mL (≈ 4.61 µM) | 0.78 µg/mL (≈ 2.31 µM) | 12.5 µg/mL (≈ 36.9 µM) | 1.56 µg/mL (≈ 4.61 µM) | 1.56 µg/mL (≈ 4.61 µM) | –
